In ChEMBL document CHEMBL5036349, “Development of potent dual PDK1/AurA kinase inhibitors for cancer therapy: Lead-optimization, structural insights, and ADME-Tox profile” (Eur J Med Chem, 2021):

Legend:
NCI-H82 [1] = test: Cytotoxicity against human NCI-H82 cells measured after 72 hrs by MTT assay; format: functional, cell-based; conditions: NCI-H82, 72 h
[2] = Cytotoxicity against human 6647 cells measured after 72 hrs by MTT assay; format: functional, cell-based; conditions: Homo sapiens, 6647, 72 h
6647 = test: (§1) Cytotoxicity against human 6647 cells at 30 uM assessed as cell proliferation rate measured after 72 hrs by MTT assay relative to control; format: functional
HCT-116 [3] = test: Cytotoxicity against human HCT-116 cells at 30 uM assessed as cell proliferation rate measured after 72 hrs by MTT assay relative to control; format: functional
SK-N-MC [4] = test: Cytotoxicity against human SK-N-MC cells measured after 72 hrs by MTT assay; format: functional, cell-based
A673 [5] = test: Cytotoxicity against human A673 cells measured after 72 hrs by MTT assay; format: functional, cell-based; conditions: A673, 72 h
HCT-116 [6] = test: Cytotoxicity against human HCT-116 cells measured after 72 hrs by MTT assay; format: functional, cell-based; conditions: HCT-116, 72 h
CAKI-1 [7] = test: Cytotoxicity against human CAKI-1 cells measured after 72 hrs by MTT assay; format: functional, cell-based; conditions: CAKI-1, 72 h
[8] = Cytotoxicity against human TC71 cells measured after 72 hrs by MTT assay; format: functional, cell-based; conditions: TC-71, 72 h
Rec1 [9] = test: Cytotoxicity against human REC1 cells measured after 72 hrs by MTT assay; format: functional, cell-based; conditions: Rec1, 72 h
TC-32 [10] = test: Cytotoxicity against human TC-32 cells measured after 72 hrs by MTT assay; format: functional, cell-based; conditions: TC-32, 72 h
IGROV-1 [11] = test: Cytotoxicity against human IGROV-1 cells measured after 72 hrs by MTT assay; format: functional, cell-based; conditions: IGROV-1, 72 h
NCI-H69 [12] = test: Cytotoxicity against human NCI-H69 cells measured after 72 hrs by MTT assay; format: functional, cell-based; conditions: NCI-H69, 72 h
786-0 [13] = test: Cytotoxicity against human 786-0 cells measured after 72 hrs by MTT assay; format: functional, cell-based; conditions: 786-0, 72 h
MCF7 [14] = test: Cytotoxicity against human MCF7 cells measured after 72 hrs by MTT assay; format: functional, cell-based; conditions: MCF7, 72 h
PC-3 [15] = test: Cytotoxicity against human PC-3 cells measured after 72 hrs by MTT assay; format: functional, cell-based; conditions: PC-3, 72 h
TC-71 [16] = test: (§2) Cytotoxicity against human TC71 cells at 30 uM assessed as cell proliferation rate measured after 72 hrs by MTT assay relative to control; format: functional
TC-32 [17] = test: Cytotoxicity against human TC-32 cells at 30 uM assessed as cell proliferation rate measured after 72 hrs by MTT assay relative to control; format: functional
HCT-116 [18] = test: Anticlonogenic activity against human HCT-116 cells assessed as reduction of cell survival at 0.5 to 20 uM measured after 10 days by SRB staining clonogenic survival assay; format: functional, cell-based; conditions: dose 0.5-20 µM, time 10.0 day
[19] = target: Histone deacetylase 9 (Homo sapiens) (UniProt Q9UKV0); test: Inhibition on human recombinant HDAC9 at 10 uM measured after 20 min by luminescence glo assay
[20] = target: Aurora kinase B (Homo sapiens) (UniProt Q96GD4); test: Inhibition of Aurora B kinase (unknown origin) at 10 uM in presence of ATP incubated for 30 min followed by addition of kinase glo-reagent measured after 20 mins by Luminescence based plate reader assay relative to control; conditions: time 50.0 min
SK-N-MC [21] = test: Cytotoxicity against human SK-N-MC cells at 30 uM assessed as cell proliferation rate measured after 72 hrs by MTT assay relative to control; format: functional
[22] = target: {'v': 'hERG (KCNH2)', 'o': 'p', 'q': 'Inhibition of human ERG at 10 uM'} (Homo sapiens, UniProt Q12809); test: Inhibition of human ERG at 10 uM relative to control
[23] = target: T1, Protein deacetylase HDAC6 (Homo sapiens) (UniProt Q9UBN7); test: Inhibition on human recombinant HDAC6 at 10 uM measured after 20 min by luminescence glo assay
T1 sequence (whole entry): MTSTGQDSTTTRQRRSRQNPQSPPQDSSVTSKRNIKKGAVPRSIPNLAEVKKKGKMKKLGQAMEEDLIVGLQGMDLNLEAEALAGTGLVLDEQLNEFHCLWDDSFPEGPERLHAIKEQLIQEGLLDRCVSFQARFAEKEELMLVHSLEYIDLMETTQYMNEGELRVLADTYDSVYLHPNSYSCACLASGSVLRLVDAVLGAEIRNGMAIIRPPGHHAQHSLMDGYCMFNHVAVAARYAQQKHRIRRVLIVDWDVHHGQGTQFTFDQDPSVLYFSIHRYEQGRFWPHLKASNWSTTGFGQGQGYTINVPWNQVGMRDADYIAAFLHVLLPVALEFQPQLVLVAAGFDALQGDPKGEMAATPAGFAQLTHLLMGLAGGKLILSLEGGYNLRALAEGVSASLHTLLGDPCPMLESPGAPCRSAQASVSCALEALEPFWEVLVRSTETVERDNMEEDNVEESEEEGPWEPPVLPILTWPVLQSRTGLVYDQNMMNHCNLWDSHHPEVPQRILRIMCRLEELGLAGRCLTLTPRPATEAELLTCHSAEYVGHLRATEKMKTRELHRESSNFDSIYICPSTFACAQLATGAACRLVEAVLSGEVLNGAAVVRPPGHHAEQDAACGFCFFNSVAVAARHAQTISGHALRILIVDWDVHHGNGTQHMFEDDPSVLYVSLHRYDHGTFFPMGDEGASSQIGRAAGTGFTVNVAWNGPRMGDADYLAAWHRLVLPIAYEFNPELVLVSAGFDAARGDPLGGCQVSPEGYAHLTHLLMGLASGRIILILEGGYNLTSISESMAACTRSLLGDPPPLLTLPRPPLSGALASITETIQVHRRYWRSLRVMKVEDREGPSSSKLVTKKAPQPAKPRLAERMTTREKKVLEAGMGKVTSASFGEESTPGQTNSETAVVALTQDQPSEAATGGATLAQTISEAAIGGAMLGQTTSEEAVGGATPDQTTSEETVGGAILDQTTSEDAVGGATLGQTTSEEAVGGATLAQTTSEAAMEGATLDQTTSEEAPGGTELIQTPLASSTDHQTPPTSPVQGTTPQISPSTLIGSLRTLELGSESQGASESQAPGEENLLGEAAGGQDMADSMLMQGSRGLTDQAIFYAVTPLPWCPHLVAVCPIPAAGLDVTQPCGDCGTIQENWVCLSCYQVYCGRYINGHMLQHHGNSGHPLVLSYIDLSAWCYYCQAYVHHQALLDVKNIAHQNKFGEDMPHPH

[24] = Cytotoxicity against hTERT cells at 10 uM measured after 24 to 48 hrs by Cell-titer glo assay relative to control; format: cell-based; conditions: human, time 24-48 hrs
HEK293 = test: Cytotoxicity against HEK293 cells at 10 uM measured after 24 to 48 hrs by Cell-titer glo assay relative to control; format: cell-based; conditions: human, hek293, 10 µM, time 24-48 hrs
[25] = target: T2, NAD-dependent protein deacetylase sirtuin-7 (Homo sapiens) (UniProt Q9NRC8); test: Inhibition of human recombinant SIRT7 at 10 uM incubated for 20 mins followed by mixing and measure after 30 mins by Luminescence assay relative to control; conditions: time 50.0 min
T2 sequence (whole entry): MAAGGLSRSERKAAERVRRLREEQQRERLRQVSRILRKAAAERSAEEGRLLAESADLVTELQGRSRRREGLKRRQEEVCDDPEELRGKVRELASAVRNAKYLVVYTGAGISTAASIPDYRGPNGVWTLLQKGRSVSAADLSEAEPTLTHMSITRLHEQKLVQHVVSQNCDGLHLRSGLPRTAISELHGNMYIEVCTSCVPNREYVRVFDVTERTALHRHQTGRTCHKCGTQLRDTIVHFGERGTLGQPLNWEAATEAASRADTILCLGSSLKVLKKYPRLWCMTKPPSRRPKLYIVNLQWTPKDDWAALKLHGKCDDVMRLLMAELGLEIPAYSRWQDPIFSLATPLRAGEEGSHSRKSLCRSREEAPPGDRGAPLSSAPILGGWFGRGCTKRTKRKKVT

[26] = target: Histone deacetylase 4 (Homo sapiens) (UniProt P56524); test: Inhibition on human recombinant HDAC4 at 10 uM measured after 20 min by luminescence glo assay
TC-71 [27] = test: Anticlonogenic activity against human TC71 cells assessed as reduction of cell survival at 0.5 to 20 uM measured after 10 days by SRB staining clonogenic survival assay; format: functional, cell-based; conditions: dose 0.5-20 µM, time 10.0 day
[28] = target: T3, Histone deacetylase 8 (Homo sapiens) (UniProt Q9BY41); test: Inhibition on human recombinant HDAC8 at 10 uM measured after 20 min by luminescence glo assay
T3 sequence (whole entry): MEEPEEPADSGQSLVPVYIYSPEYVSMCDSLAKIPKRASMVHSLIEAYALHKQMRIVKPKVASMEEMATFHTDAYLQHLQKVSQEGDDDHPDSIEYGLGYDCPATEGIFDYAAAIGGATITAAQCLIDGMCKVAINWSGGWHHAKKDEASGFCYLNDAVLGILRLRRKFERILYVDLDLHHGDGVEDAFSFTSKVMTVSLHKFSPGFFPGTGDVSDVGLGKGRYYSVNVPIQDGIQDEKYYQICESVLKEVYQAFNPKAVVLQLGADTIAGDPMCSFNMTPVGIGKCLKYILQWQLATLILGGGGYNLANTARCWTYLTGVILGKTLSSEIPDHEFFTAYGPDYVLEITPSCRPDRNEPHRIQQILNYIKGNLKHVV

[29] = target: 3',5'-cyclic-AMP phosphodiesterase 4C (Homo sapiens) (UniProt Q08493); test: Inhibition of PDE4C1 (unknown origin) at 10 uM incubated for 60 mins followed by addition of binding agent and measured after 20 mins by Fluorescence Polarization assay relative to control; conditions: time 80.0 min
MCF7 [30] = test: Cytotoxicity against human MCF7 cells at 30 uM assessed as cell proliferation rate measured after 72 hrs by MTT assay relative to control; format: functional
Rec1 [31] = test: Cytotoxicity against human REC1 cells at 30 uM assessed as cell proliferation rate measured after 72 hrs by MTT assay relative to control; format: functional
PC-3 [32] = test: Cytotoxicity against human PC-3 cells at 30 uM assessed as cell proliferation rate measured after 72 hrs by MTT assay relative to control; format: functional
[33] = as §1; format: functional
A673 [34] = test: Cytotoxicity against human A673 cells at 30 uM assessed as cell proliferation rate measured after 72 hrs by MTT assay relative to control; format: functional
NCI-H69 [35] = test: Cytotoxicity against human NCI-H69 cells at 30 uM assessed as cell proliferation rate measured after 72 hrs by MTT assay relative to control; format: functional
CAKI-1 [36] = test: Cytotoxicity against human CAKI-1 cells at 30 uM assessed as cell proliferation rate measured after 72 hrs by MTT assay relative to control; format: functional
IGROV-1 [37] = test: Cytotoxicity against human IGROV-1 cells at 30 uM assessed as cell proliferation rate measured after 72 hrs by MTT assay relative to control; format: functional
NCI-H82 [38] = test: Cytotoxicity against human NCI-H82 cells at 30 uM assessed as cell proliferation rate measured after 72 hrs by MTT assay relative to control; format: functional
786-0 [39] = test: Cytotoxicity against human 786-0 cells at 30 uM assessed as cell proliferation rate measured after 72 hrs by MTT assay relative to control; format: functional
[40] = as §2; format: functional; conditions: TC-71

Sequence of Histone deacetylase 9 (Homo sapiens) (Q9UKV0 whole entry): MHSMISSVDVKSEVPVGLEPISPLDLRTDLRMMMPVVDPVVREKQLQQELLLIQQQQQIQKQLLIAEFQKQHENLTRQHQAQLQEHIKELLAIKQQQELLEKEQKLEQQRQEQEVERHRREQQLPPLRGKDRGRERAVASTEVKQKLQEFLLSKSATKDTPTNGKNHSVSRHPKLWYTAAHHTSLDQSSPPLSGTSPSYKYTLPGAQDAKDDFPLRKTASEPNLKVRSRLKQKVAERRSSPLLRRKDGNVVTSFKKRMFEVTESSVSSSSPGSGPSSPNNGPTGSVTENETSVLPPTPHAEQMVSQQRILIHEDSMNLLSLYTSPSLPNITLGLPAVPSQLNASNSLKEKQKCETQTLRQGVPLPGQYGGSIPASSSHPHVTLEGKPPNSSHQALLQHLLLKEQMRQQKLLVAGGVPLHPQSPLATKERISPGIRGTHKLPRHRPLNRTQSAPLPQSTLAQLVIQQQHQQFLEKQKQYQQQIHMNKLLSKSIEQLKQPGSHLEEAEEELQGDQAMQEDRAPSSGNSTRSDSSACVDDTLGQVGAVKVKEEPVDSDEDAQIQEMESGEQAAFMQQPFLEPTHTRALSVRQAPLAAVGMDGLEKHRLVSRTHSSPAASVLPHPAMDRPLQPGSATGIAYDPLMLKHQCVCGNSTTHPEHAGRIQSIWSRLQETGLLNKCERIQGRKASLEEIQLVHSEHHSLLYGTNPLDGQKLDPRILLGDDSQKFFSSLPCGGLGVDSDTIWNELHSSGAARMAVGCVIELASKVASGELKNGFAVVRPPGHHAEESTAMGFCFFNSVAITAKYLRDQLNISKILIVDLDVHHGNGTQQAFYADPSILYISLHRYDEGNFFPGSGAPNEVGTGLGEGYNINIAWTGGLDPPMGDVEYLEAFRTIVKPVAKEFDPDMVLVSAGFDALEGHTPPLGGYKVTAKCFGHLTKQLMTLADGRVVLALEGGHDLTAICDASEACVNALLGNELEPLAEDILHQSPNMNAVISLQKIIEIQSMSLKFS
Sequence of 3',5'-cyclic-AMP phosphodiesterase 4C (Homo sapiens) (Q08493 whole entry): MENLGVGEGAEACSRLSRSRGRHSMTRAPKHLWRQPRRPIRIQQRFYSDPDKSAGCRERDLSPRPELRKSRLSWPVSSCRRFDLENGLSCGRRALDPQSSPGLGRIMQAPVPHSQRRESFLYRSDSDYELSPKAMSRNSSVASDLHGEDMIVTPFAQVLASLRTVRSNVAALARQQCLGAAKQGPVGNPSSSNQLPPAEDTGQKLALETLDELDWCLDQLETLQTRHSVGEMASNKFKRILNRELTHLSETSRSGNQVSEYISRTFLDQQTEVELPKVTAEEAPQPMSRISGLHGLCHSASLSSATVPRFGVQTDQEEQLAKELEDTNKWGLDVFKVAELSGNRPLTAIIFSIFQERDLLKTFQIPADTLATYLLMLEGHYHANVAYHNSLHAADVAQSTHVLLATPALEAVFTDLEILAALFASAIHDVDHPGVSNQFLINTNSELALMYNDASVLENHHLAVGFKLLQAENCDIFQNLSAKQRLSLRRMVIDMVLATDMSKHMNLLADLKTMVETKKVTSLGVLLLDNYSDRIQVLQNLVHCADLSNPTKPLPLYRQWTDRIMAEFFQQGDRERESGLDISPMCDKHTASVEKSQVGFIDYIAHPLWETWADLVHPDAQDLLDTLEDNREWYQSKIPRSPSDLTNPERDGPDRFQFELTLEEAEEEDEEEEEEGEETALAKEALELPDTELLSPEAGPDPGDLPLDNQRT
Sequence of {'v': 'hERG (KCNH2)', 'o': 'p', 'q': 'Inhibition of human ERG at 10 uM'} (Q12809 whole entry): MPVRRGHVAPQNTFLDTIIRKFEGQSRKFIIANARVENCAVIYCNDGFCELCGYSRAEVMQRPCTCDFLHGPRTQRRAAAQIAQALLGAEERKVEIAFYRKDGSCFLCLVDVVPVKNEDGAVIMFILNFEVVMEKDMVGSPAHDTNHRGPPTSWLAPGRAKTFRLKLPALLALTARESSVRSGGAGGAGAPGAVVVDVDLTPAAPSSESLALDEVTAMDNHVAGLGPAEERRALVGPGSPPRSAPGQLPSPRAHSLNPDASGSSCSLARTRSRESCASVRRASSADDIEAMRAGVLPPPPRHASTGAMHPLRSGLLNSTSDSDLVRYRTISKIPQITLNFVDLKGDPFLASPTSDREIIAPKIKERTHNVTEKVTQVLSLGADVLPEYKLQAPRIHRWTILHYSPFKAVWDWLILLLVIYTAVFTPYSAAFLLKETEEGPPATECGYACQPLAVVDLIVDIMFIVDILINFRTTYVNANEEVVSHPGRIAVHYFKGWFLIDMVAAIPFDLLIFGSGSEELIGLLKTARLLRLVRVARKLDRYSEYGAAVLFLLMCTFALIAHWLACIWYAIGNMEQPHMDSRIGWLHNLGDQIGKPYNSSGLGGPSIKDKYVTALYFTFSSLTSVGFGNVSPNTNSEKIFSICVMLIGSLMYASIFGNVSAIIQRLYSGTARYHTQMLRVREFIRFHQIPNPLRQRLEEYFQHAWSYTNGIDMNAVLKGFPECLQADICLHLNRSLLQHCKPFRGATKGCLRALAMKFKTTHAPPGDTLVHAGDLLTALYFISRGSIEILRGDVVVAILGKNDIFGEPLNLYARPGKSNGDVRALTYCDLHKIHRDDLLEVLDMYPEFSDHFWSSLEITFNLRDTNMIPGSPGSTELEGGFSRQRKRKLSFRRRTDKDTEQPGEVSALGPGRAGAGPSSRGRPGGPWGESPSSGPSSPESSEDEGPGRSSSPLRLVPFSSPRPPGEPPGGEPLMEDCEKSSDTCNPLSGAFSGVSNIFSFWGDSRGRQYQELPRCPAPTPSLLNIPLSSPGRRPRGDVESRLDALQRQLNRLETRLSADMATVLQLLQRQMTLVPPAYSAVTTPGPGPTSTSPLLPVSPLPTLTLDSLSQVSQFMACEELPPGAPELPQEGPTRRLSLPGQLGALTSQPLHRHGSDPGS
Sequence of Histone deacetylase 4 (Homo sapiens) (P56524 whole entry): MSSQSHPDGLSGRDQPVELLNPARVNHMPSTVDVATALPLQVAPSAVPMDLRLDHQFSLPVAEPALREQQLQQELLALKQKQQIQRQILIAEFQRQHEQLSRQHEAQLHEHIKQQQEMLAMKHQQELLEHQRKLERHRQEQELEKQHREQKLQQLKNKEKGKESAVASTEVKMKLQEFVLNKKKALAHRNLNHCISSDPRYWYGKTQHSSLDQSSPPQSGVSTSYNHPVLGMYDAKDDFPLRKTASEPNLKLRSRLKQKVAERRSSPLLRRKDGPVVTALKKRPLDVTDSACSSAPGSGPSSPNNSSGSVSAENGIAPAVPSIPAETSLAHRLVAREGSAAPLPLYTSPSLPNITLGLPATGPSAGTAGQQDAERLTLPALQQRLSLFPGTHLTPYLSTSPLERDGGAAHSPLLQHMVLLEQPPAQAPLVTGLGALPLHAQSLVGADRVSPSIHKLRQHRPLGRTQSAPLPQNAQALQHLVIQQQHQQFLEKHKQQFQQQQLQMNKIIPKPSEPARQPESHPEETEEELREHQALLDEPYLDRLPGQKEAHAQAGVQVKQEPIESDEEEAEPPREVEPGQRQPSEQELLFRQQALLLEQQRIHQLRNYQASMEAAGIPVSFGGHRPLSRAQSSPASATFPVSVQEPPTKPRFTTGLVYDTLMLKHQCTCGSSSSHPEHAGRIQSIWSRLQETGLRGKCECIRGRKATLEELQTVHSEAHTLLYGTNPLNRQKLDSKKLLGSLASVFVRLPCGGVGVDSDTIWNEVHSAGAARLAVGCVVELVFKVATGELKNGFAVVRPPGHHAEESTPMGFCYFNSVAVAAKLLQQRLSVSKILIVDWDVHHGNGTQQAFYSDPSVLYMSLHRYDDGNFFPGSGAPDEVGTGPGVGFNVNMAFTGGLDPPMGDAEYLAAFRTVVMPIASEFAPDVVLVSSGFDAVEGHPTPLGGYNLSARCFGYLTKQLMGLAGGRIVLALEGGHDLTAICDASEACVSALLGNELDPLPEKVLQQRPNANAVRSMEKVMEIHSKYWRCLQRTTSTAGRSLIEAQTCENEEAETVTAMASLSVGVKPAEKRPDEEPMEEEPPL
Sequence of Aurora kinase B (Homo sapiens) (Q96GD4 whole entry): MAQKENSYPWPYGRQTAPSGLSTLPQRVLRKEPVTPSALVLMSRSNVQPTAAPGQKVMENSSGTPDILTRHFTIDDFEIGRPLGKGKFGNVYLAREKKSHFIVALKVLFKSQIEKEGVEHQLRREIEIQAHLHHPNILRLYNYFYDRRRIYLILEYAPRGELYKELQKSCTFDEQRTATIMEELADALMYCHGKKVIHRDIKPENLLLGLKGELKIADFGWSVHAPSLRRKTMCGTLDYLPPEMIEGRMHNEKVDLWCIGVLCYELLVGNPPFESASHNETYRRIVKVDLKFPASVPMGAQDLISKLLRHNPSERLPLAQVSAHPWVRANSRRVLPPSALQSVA

Compound | IC50 (NCI-H82 [1]) [µM] | IC50 [2] [µM] | Emax at 30 µM (HCT-116 [3]) [%] | IC50 (SK-N-MC [4]) [µM] | IC50 (A673 [5]) [µM] | IC50 (HCT-116 [6]) [µM] | IC50 (CAKI-1 [7]) [µM] | IC50 [8] [µM] | IC50 (Rec1 [9]) [µM] | IC50 (TC-32 [10]) [µM] | IC50 (IGROV-1 [11]) [µM] | IC50 (NCI-H69 [12]) [µM] | IC50 (786-0 [13]) [µM] | IC50 (MCF7 [14]) [µM] | IC50 (PC-3 [15]) [µM] | Emax at 30 µM (TC-32 [17]) [%] | Emax at 30 µM (SK-N-MC [21]) [%] | other results
O=C(O)[C@]1(Cc2cccc(Nc3nccs3)n2)CC[C@@H](Oc2cccc(Cl)c2F)CC1 [MK-5108] | > 30 | 0.6 | 40 | > 30 | > 30 | 16.3 | > 30 | 1.6 | > 30 | 5.6 | > 30 | > 30 | > 30 | > 30 | > 30 | -59 | – | Emax 6647: 82%; Emax (TC-71 [16]): 70%
Cc1ccc(C(=O)N[C@@H](C(=O)Nc2ccc3c(c2)/C(=C/c2cnc[nH]2)C(=O)N3)c2ccccc2)c(=O)n1Cc1ccc(F)c(F)c1 | > 30 | 4.7 | – | 3 | > 30 | > 30 | > 30 | > 30 | > 30 | > 30 | > 30 | > 30 | > 30 | > 30 | > 30 | – | 83 | Activity (HCT-116 [18]): Dose-Dependent Effect; inhibition [19]: < 30%; inhibition [20]: < 20%; inhibition at 10 µM [22]: 56%; inhibition [23]: < 30%; Activity [24]: < 25%; Activity (HEK293): < 25%; inhibition [25]: < 30%; inhibition [26]: < 30%; Activity (TC-71 [27]): Dose-Dependent Effect; inhibition [28]: < 30%; inhibition [29]: < 30%
NCC(=O)Nc1ccc(-n2nc(C(F)(F)F)cc2-c2ccc3c(ccc4ccccc43)c2)cc1 [AR-12] | 4 | 0.3 | 95 | 6 | 2.1 | 2.7 | 5 | 0.8 | 3.8 | 2 | 3.7 | 1.8 | 2.9 | 2.8 | 6.5 | 75 | 81 | Emax at 30 µM (MCF7 [30]): 89%; Emax at 30 µM (Rec1 [31]): 90%; Emax at 30 µM (PC-3 [32]): 80%; Emax at 30 µM [33]: 89%; Emax at 30 µM (A673 [34]): 95%; Emax at 30 µM (NCI-H69 [35]): 80%; Emax at 30 µM (CAKI-1 [36]): 95%; Emax at 30 µM (IGROV-1 [37]): 91%; Emax at 30 µM (NCI-H82 [38]): 90%; Emax at 30 µM (786-0 [39]): 80%; Emax at 30 µM [40]: 95%
